Values joined by “and” are separate entries in the source; they are usually repeats but may differ in a detail not shown here. Equal values may be shown once.

The values that follow come from patent US20020076693A1, “Novel cell surface receptor for HIV retroviruses, therapeutic and diagnostic uses” (priority 1997, published 2002).

For assay [1], the system named is V3 loop-BPs (nucleolin, PHAP II, PHAP I). The assay is described as follows: BIAcore biosensor binding to immobilized V3 loop-BPs. Also noted: species or system human. The conditions noted are these: for Ka (equilibrium affinity constant) / ka (association rate constant) / kd (dissociation rate constant): binding protein(s) V3 loop-BPs, BIAcore; for equilibrium affinity constant Ka: binding to the V3 loop-BPs.

Assay [2] concerns HIV-1 Ada-M. The assay can be described thus: HIV-1 Ada-M entry into HeLa P4-C5 cells (β-galactosidase). The assay is classed as cell-based. The conditions noted are these: HeLa P4-C5, β-galactosidase at 48 hours. The protocol: HeLa cells (P4-C5) were treated (incubation at 37° C., 30 min) with AZT (5 μM), (α-CD4 mAb CBT4 (5 μg/ml) before infection with the different HIV isolates in order to obtain the background β-galactosidase activity compared to untreated cells (Control). During the same time, the different HIV isolates were treated (incubation at room temperature, 15 min) with 1, 5, and 10 μg/ml of heparin before addition to untreated cells. The b-galactosidase activity was assayed at 48 hours post-infection as a measure of HIV entry (3 +L7).

The test system of assay [3] is HIV-1 JRCSF. The assay is described as follows: HIV entry into HeLa P4-C5 cells (β-galactosidase), HIV-1 JRCSF. The assay is classed as cell-based. The conditions noted are these: HIV-1 JRCSF; heparin 1, 5, 10 μg/ml.
For assay [4], the system named is SIVmac. The assay can be described thus: SIVmac entry into HeLa cells (β-galactosidase). The assay is classed as cell-based, SIV. The conditions noted are these: β-galactosidase at 48 hours.
The test system of assay [5] is HIV-1 Lai. The assay can be described thus: HIV entry into HeLa P4 / P4-C5 cells (β-galactosidase activity), HIV-1 Lai. The assay is classed as cell-based.
Assay [6] relates to HIV-1 AZT resistant, Saquinavir resistant, Nevirapine resistant. The assay can be described thus: Entry of HIV-1 isolates resistant to antiviral drugs into HeLa cells (β-galactosidase). The assay is classed as cell-based. The conditions noted are these: heparin 5 mg/ml. Here is the method: HIV entry and replication, results in the activation of the HIV LTR, leading to the expression of the lacZ gene. Therefore, at 24 and 48 hours post-infection, the β-galactosidase activity could be measured in cell extracts directly. Consequently, this latter technique could be used to monitor HIV entry into cells. The HIV dose used corresponded to the amount of virus containing 20-40 ng/ml of p24.
In these experiments, the background values of the β-galactosidase activity were assesed by the samples incubated with the a-CD4 mAb. Furthermore, the effect of heparin (5 mg/ml) was investigated.

The test system of assay [7] is HIV-2 ROD. The assay is described as follows: HIV entry into HeLa P4-C5 cells (β-galactosidase), HIV-2 ROD. The assay is classed as cell-based. The conditions noted are these: heparin 1, 5, 10 μg/ml.
In assay [8] the test system is HIV-1 Bal. The assay can be described thus: HIV entry into HeLa P4-C5 cells (β-galactosidase), HIV-1 Ba-L. The assay is classed as cell-based. The conditions noted are these: HIV-1 Ba-L; heparin; mAb a-V3 5 μg/ml.
Assay [9] has as its target CD4 (Homo sapiens, UniProt P01730). The assay is described as follows: BIAcore biosensor binding to soluble CD4. The conditions noted are these: binding protein soluble recombinant CD4, BIAcore.
Assay [10] deals with VSV/HIV. The assay is classed as cell-based.
For assay [11], the system named is HIV-1 pseudotyped Mo-MLV virus. The assay can be described thus: Infection of CEM cells by HIV-1 pseudotyped Mo-MLV virus (p24). The conditions noted are these: p24 at 48 hours p.i., AZT 5 μM, TASP 5 μM.
Experimental: CEM cells (2×10^5) were infected with the HIV-1 pseudoryped Mo-MLV virus (Experimental procedure) at 95 ng of p24/ml, in the absence (histogram Control) or presence of different additions (as indicated). The infection was monitored by the production of p24, which was measured in the culture supernatant at 48 hours p.i. The mean±SD of duplicate samples is given. Treatment of cells with the different antibodies was as in FIG. 6 +L. For a control of infection, cells were pretreated with 5 μM AZT before infection.
Hela cells were cotransfected by electroporation with plasmids pNL4-3 defective in env gene (Borman et al., 1995) and pE4070A expressing amphotrope envelope glycoproteins of Mo-MLV (Battini et al., 1996). Electroporation (Schwartz et al., 1996) was performed at 200 V, 960 μF, using a 4 mm wide cuvettes in a BIO-Rad Gene Pulser. The pseudotyped virus was recovered from the culture supernatant after 48 hours of culturing.
Assay [12] concerns V3 loop-BPs. The assay can be described thus: ELISA binding of proteins to coated V3 loop-BPs. Details: species or system human. The conditions noted are these: gp120 1 ng/ml, gp41 2 ng/ml, histone H3. Here is the method: This is an ELISA-type experiment using the purified preparation of the V3 loop-BPs which was as described in FIG. 2 +L. The purified preparation of the V3 loop-BPs at different concentrations (12;5 to 200 ng/ml; abscissa) was coated to the plate before incubation with either gp120 (at 1 ng/ml; ), gp41 (at 2 ng/ml;), or histone H3 (1 μg/ml;). […] As a control mAb, we used mAb OKT4A specific for CD4. The abscissa gives the concentration of V3 loop-BPs in ng/ml. The ordinate gives the optical density (OD) values measured at 450 nm as an indicator of reactivity. An OD value less than 0.2 was considered as not significant. mAb OKT4A at 1 mg/ml gave an OD value of 0.20 when used in wells preincubated with either gp120, gp41, or histone H3. Rabbit antiserum against CXCR4 at dilutions as low as 1:200 generated an OD value of 0.15.
The resulting absorbance was measured at 450 nm.

Assay [13] concerns the target V3 loop-BPs. The assay can be described thus: Inhibition of 5[Kψ(CH2N)PR]-TASP binding to the V3 loop-BPs (biosensor). Also noted: species or system human. The conditions noted are these: read-out: IC50 for the inhibition of 5[Kψ(CH2N)PR]-TASP binding to the V3 loop-BPs, increasing concentrations of gp120 HIV-1 Lai.

For the compound “gp120 HIV-1 SF2 2/3: nonglycosylated form of gp120 of HIV-1 SF2 (Env 2-3)”, in assay [1], the “Ka (equilibrium affinity constant)” value worked out at 1.6e+08 M⁻¹, the “ka (association rate constant)” value is given as 3.80 × 10^5 M^−1S^−1, the “kd (dissociation rate constant)” value is 2.40 × 10^−3 S^−1 and the “equilibrium affinity constant Ka” value worked out at 1.6e+08 M⁻¹.

Consider “NCTRPNNNRKSIRIQRGPGRAFVTIGKIGNMRQAHCNIS [V3 loop-Lai, synthetic V3 loop peptide of T-cell tropic HIV-1 Lai]”, for which, in assay [1], the “equilibrium affinity constant Ka” value was determined as 5.1e+06 M⁻¹.

For the compound Heparin [reference compound], the “effect on HIV-1 Ada-M entry” value in [2] is recorded as “inhibits”. Besides, the “effect on viral entry (β-galactosidase activity at 48 hours post-infection)” value in assay [3] is “no significant effect”; in assay [5] (HIV-1 LAI, heparin 1, 5, 10 μg/ml, mAb a-V3 5 μg/ml), “inhibits”; in assay [7] it was “inhibits”; in assay [8], “no significant effect”. Moreover, the “effect on SIVmac entry” value in assay [4] is “inhibits”. The “effect on entry of drug-resistant HIV-1 isolates” value in assay [6] is “drastically inhibited”.

Turning to “gp120 HIV-1 SF2: recombinant gp120 of HIV-1 SF2 produced in CHO cells”, in [9], the “Ka (equilibrium affinity constant)” value was 2.1e+08 M⁻¹, the “ka (association rate constant)” value is recorded as 11.50 × 10^5 M^−1S^−1 and the “kd (dissociation rate constant)” value is listed as 5.60 × 10^−3 S^−1. In [1], the “Ka (equilibrium affinity constant)” value was found to be 2.32e+09 M⁻¹; the “ka (association rate constant)” value was 0.65 × 10^5 M^−1S^−1; the “kd (dissociation rate constant)” value was 0.028 × 10^−3 S^−1 and 0.03 × 10^−3 S^−1; the “equilibrium affinity constant Ka” value turned out to be 2.3e+09 M⁻¹.

Take “gp120 HIV-1 MN: recombinant gp120 of HIV-1 MN”: in assay [9], the “Ka (equilibrium affinity constant)” value is 7.7e+08 M⁻¹, the “ka (association rate constant)” value is 2.98 × 10^5 M^−1S^−1 and the “kd (dissociation rate constant)” value was 38.60 × 10^−3 S^−1. Besides, in [1], the “Ka (equilibrium affinity constant)” value was found to be 4.3e+08 M⁻¹, the “ka (association rate constant)” value is recorded as 1.90 × 10^5 M^−1S^−1, the “kd (dissociation rate constant)” value is recorded as 0.44 × 10^−3 S^−1 and the “equilibrium affinity constant Ka” value is 4.3e+08 M⁻¹.

For `Cc1cn([C@H]2C[C@H](N=[N+]=[N-])[C@@H](CO)O2)c(=O)[nH]c1=O` [AZT, reference compound], the “effect on VSV-HIV pseudotyped virus entry and replication” value in [10] was “inhibited”. Also, in assay [5] (AZT 5 μM), the “inhibition of HIV infection monitored by the production of p24” value was “more than 99%”. The “effect on infection by HIV-1 pseudotyped Mo-MLV virus” value in assay [11] was “inhibited”.

Turning to “gp120 HIV-1 Lai: recombinant external envelope glycoprotein of HIV-1 Lai”, the “binding to the purified V3 loop-BPs in ELISA” value in assay [12] is recorded as “bind in a dose-dependent manner”. In addition, in [9], the “Ka (equilibrium affinity constant)” value is 1.08e+09 M⁻¹, the “ka (association rate constant)” value is 5.88 × 10^5 M^−1S^−1 and the “kd (dissociation rate constant)” value is 54.50 × 10^−3 S^−1. Besides, in assay [1], the “Ka (equilibrium affinity constant)” value amounted to 2.1e+08 M⁻¹, the “ka (association rate constant)” value is listed as 4.40 × 10^5 M^−1S^−1, the “kd (dissociation rate constant)” value is given as 2.10 × 10^−3 S^−1 and the “equilibrium affinity constant Ka” value was 2.1e+08 M⁻¹. Also, in [13], the IC50 is roughly 3 nM.

With “NCTRPNNNTRKSIHIGPGRAFYTGEIIGDIRQAHCNLS [V3 loop-Ba-L, synthetic V3 loop peptide of macrophage-tropic HIV-1 Ba-L]”, the “equilibrium affinity constant Ka” value in assay [1] worked out at 1.5e+06 M⁻¹.
